Assay results from US20260217706A1, “HETEROCYCLIC COMPOUNDS, PREPARATION METHOD THEREFOR AND USE THEREOF” (GUANGZHOU YUFAN NANTU BIOTECHNOLOGIES CO., LTD, priority 2023, published 2026).

Tests used:
CBL-B protein = CBL-B protein (Homo sapiens, UniProt Q13191); experiment: CBL-B binding experiment (Streptavidin-Tb cryptate / Ligand L1 displacement); conditions: 8 nM CBL-B protein, 25° C., 60 minutes; Ki=Relative IC50/2
How it was run: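 Compounds in a 10-point DMSO series met 8 nM CBL-B protein in HEPES pH 7.5/NaCl/Triton/TCEP/BSA buffer at 25° C. for 60 min. A further 60 min at room temperature preceded the luminescence read, normalised to no-protein and DMSO wells. Ki was taken as relative IC50 divided by 2.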

[1] = tested on: anti-CD3 activated human PBMCs; experiment: Effect of compounds on the level of IL-2 secretion by anti-CD3 activated human PBMCs (IL-2 ELISA); type: cell-based; conditions: compound concentration at which fold change in IL-2 = 5; hPBMCs, CD3 antibody 2 μg/mL, 48 h, compound from 3 μM
How it was run: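 Human PBMCs were preincubated 1 h, then exposed to compound (10 points, 3-fold from 3 μM final) with anti-CD3 at 2 μg/mL for 48 h at 37° C. Supernatant IL-2 was measured by ELISA as fold change over DMSO.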

CBL-B protein, sequence (Q13191 whole entry): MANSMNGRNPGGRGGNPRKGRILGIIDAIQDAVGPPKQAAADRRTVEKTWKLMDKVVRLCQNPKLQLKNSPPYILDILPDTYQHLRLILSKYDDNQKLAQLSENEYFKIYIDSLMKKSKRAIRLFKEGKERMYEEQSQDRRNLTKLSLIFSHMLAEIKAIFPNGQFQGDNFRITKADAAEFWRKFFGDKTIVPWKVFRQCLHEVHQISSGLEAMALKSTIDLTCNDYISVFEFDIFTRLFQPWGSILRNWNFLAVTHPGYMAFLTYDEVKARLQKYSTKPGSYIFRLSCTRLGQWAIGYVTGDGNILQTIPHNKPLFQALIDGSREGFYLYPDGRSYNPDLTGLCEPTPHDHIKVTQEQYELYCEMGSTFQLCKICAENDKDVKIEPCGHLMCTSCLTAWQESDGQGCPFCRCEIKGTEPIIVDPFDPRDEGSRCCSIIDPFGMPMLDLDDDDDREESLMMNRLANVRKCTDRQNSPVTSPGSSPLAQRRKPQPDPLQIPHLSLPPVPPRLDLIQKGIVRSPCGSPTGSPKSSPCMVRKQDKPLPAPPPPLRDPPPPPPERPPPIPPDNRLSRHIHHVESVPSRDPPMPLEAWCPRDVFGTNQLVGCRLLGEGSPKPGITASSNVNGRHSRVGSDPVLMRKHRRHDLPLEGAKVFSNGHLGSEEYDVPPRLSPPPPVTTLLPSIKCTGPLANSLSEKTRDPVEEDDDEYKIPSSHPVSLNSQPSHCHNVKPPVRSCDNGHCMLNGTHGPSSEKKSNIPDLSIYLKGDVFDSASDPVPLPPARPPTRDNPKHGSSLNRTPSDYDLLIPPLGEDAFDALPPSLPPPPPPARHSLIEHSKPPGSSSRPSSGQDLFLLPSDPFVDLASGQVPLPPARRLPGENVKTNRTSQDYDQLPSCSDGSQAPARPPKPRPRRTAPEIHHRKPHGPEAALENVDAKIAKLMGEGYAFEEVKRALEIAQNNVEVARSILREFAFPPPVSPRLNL

SMILES	Ki (CBL-B protein) [nM]	IL-2 CFC=5/nM [1] [nM]
CCN(Cc1cc2c(C(F)(F)F)cn(-c3cccc([C@]4(c5nncn5C)C[C@@H](C)C4)c3)c(=O)c2[nH]1)C(C)C [Compound T159, 2-((ethyl(isopropyl)amino)methyl)-6-(3-((1s,3s)-3-methyl-1-(4-methyl-4H-1,2,4-triazol-3-yl)cyclobutyl)phenyl)-4-(trifluoromethyl)-1,6-dihydro-7H-pyrrolo[2,3-c]pyridin-7-one]	< 50	<500
CCCNCc1cc2c(C(F)(F)F)cn(-c3cccc(C4(c5nncn5C)CCC4)c3)c(=O)c2[nH]1 [Compound T160, 6-(3-(1-(4-methyl-4H-1,2,4-triazol-3-yl)cyclobutyl)phenyl)-2-((propylamino)methyl)-4-(trifluoromethyl)-1,6-dihydro-7H-pyrrolo[2,3-c]pyridin-7-one]	< 50	<500
Cn1cnnc1C1(c2cccc(-n3cc(C(F)(F)F)c4cc(CNC(C)(C)C)[nH]c4c3=O)c2)CCC1 [Compound T161, 2-((tert-butylamino)methyl)-6-(3-(1-(4-methyl-4H-1,2,4-triazol-3-yl)cyclobutyl)phenyl)-4-(trifluoromethyl)-1,6-dihydro-7H-pyrrolo[2,3-c]pyridin-7-one]	< 50	<500
Cn1cnnc1C1(c2cccc(-n3cc(C(F)(F)F)c4cc(CNCC(C)(C)C)[nH]c4c3=O)c2)CCC1 [Compound T162, 6-(3-(1-(4-methyl-4H-1,2,4-triazol-3-yl)cyclobutyl)phenyl)-2-((neopentylamino)methyl)-4-(trifluoromethyl)-1,6-di hydro-7H-pyrrolo[2,3-c]pyridin-7-one]	< 50	<500
CCN(Cc1cc2c(C(F)(F)F)cn(-c3cccc([C@]4(c5nncn5C)C[C@@H](OC)C4)c3)c(=O)c2[nH]1)C(C)C [Compound T192]	< 50	<500
